The target in this experiment is T1, Piezo1 (Mus musculus, UniProt E2JF22).
T1 construct: native full-length channel in primary cultured cholangiocytes (DIV5) from intrahepatic bile duct units; monomer ~290 kD band reported for GFP-tagged protein
The experiment can be described thus: Fura-2 ratiometric Ca2+ imaging. It is filed as cell-based. Particulars: agonist; native DIV5 mouse cholangiocytes, 2.5 mM external Ca2+; Yoda1 without effect in Piezo1-knockout HEK293T cells; read-out: apparent EC50. The source says: Fura-2 ratiometric Ca2+ imaging on Piezo1 | Concentration-response profile for Yoda1 in mouse DIV5 cholangiocytes, yielding apparent EC50

T1 sequence (E2JF22 whole entry): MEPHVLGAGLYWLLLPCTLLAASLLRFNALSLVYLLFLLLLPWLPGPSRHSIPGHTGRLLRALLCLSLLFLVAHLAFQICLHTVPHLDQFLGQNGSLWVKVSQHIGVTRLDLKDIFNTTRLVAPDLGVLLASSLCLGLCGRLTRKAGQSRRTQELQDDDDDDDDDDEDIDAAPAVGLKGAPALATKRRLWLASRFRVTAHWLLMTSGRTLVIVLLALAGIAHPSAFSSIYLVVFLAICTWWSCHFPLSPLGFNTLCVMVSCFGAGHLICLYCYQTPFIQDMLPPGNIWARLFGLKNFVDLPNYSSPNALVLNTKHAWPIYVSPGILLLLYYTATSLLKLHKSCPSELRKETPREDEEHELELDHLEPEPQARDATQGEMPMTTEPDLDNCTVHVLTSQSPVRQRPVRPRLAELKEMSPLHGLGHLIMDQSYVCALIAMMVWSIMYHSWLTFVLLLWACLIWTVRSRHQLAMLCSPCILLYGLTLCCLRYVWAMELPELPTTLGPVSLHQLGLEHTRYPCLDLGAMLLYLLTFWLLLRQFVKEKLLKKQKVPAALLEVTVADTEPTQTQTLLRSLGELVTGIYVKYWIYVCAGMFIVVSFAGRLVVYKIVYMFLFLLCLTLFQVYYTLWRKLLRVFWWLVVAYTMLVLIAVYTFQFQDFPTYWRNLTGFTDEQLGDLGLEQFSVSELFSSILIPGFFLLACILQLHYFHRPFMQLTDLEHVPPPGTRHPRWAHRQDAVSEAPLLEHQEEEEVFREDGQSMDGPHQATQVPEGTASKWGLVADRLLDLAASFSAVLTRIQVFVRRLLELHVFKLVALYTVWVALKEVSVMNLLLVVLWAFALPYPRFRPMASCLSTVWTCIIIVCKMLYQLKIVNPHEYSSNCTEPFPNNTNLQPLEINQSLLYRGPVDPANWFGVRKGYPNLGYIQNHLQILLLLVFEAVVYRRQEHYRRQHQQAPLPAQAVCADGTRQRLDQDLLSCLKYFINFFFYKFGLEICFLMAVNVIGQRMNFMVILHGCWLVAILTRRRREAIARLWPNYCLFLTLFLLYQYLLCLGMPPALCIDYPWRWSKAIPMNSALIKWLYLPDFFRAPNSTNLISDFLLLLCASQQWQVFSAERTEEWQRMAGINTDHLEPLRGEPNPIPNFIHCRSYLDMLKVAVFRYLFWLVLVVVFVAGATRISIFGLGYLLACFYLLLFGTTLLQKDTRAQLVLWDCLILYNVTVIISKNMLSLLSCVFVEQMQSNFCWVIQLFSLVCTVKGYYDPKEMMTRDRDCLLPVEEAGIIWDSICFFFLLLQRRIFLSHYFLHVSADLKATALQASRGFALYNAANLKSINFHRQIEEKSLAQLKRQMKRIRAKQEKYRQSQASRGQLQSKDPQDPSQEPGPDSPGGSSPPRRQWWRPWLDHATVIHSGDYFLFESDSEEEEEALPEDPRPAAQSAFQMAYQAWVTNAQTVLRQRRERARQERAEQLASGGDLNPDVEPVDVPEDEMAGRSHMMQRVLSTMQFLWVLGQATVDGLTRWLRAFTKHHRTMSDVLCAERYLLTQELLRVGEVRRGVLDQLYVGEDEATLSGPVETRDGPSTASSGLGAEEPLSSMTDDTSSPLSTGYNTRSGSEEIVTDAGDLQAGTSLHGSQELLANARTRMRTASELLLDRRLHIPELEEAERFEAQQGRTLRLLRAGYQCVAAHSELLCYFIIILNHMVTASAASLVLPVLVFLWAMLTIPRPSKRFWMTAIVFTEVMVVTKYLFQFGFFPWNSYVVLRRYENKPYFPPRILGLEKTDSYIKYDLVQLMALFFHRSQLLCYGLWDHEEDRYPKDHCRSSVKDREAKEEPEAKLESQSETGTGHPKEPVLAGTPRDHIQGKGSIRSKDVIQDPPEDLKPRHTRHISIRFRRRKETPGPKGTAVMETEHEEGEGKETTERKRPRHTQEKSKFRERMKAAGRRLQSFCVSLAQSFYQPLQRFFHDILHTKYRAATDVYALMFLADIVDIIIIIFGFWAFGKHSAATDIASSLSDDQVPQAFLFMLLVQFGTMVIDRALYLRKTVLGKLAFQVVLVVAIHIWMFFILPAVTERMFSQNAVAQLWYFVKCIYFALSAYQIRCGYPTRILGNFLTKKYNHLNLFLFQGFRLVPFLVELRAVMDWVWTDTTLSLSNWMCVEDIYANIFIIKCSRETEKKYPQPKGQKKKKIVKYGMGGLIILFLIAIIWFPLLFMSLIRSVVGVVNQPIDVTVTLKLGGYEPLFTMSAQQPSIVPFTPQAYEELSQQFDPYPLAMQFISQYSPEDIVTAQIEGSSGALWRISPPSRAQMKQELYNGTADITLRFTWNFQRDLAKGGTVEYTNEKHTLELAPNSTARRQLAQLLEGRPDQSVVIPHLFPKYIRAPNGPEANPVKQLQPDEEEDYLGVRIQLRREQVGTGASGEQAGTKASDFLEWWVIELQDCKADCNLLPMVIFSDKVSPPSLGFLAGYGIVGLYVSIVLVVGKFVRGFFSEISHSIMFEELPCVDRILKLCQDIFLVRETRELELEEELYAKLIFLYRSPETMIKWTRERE

In general, EC50 refers to the midpoint of the concentration-response curve. `Clc1cccc(Cl)c1CSc1nnc(-c2cnccn2)s1` [Yoda1]: the EC50 turned out to be 29.4 ± 1.25 µM.

Values taken from PMC8548913, “Piezo1–Pannexin1 complex couples force detection to ATP secretion in cholangiocytes” (The Journal of General Physiology, 2021).
